The record followed here is patent US10076540B1, “Medication enhancement using hydrogen” (Perricone Hydrogen Water Company, LLC, priority 2017, dated 2018).

The nature of this assay: Time until the effects of THC are felt after ingestion of a hydrogen-containing composition (uptake rate). The assay is classed as in vivo. The settings on record: human subject; drunk composition of liquid such as water, dissolved hydrogen and THC. An excerpt:
In some embodiments, the composition comprising hydrogen and an active pharmaceutical agent may have an uptake rate that is at least 2, at least 3, at least 5, at least 10, at least 20, at least 30, or at least 50 times the uptake rate of the active pharmaceutical agent alone by a subject. In certain embodiments, composition comprising hydrogen and an active pharmaceutical agent may have an uptake rate that is less than or equal to 100, less than or equal to 50, less than or equal to 30, less than or equal to 20, less than or equal to 10, less than or equal to 5, or less than or equal to 3 times the uptake rate of the active pharmaceutical agent alone by the subject. Combinations of the above-referenced ranges are also possible (e.g., at least 2 or less than or equal to 100 times). Other ranges are also possible. The uptake rate of a composition (or active pharmaceutical agent) may be determined by administering the composition (or active pharmaceutical agent) to a subject and determining the amount of time required to observe a pharmacological effect (e.g., a psychotropic effect, a reduction in disease and/or clinical symptom) of the active pharmaceutical agent on the subject.
A composition such as described herein is provided to a subject, such as a human subject. […]

As to `CCCCCc1cc(O)c2c(c1)OC(C)(C)[C@@H]1CCC(C)=C[C@@H]21` [THC, tetrahydrocannabinol], the “time after ingestion until the effects of the THC are felt by the subject” value was “less than 5 minutes”.
